Measurements published in patent US9180118B2, “Thiadiazolidinone derivatives” (University of Rochester, priority 2006, dated 2015).
Where two headings read alike, the source gives them in different places.

Tests used:
[1] = molecular target: PHKG2 (Homo sapiens, UniProt P15735); test: Kinase assay; format: biochemical
Description: (§1) Kinase Assays: Single point and titration assays are performed using protocols (or essentially using protocols) know in the art for kinase activity profiling against a battery of kinase targets, including, for example, those specifically delineated herein. Such assays include, for example, those available from commercial sources, contract research laboratories, and the like.

[2] = molecular target: PDGFRB (PDGFR beta) (Homo sapiens, UniProt P09619); test: Kinase assay; format: biochemical
Description: as §1

[3] = molecular target: EPHA2 (Homo sapiens, UniProt P29317); test: Kinase assay; format: biochemical
Description: as §1

[4] = molecular target: KDR (VEGFR2) (Homo sapiens, UniProt P35968); test: Kinase assay; format: biochemical
Description: as §1

[5] = molecular target: PRKCB2 (PKC beta II) (Homo sapiens, UniProt P05771); test: Kinase assay; format: biochemical
Description: as §1

[6] = molecular target: MAP4K4 (HGK) (Homo sapiens, UniProt O95819); test: Kinase assay; format: biochemical
Description: as §1

[7] = test system: normal specimens (BM or CB); test: Membrane integrity by YoPro-1 uptake, normal specimens; format: cell-based, human; conditions: 20 μM TDZD-8 for 15 min
Description: C. […] Cells were then washed with PBS and stained to assess membrane permeability using annexin V-Allophycocyanin (APC) and the vital dyes: Yo-[…] (0.1 uM), Hoescht 33342 (2.5 ug/ml), and Propidium Iodide (0.5 ug/ml) (Molecular Probes).

[8] = molecular target: GSK3B (GSK3 beta) (Homo sapiens, UniProt P49841); test: Kinase assay (single point and titration); format: biochemical; conditions: TDZD-8 20 μM
[9] = test system: bcCML progenitor cells; test: Methylcellulose colony assay, bcCML; format: cell-based, human; conditions: 20 μM TDZD-8, 18 hours before plating, n=3
Description: (§2) Cells were then plated at 50,000 cells/ml in Methocult™ GF H4534 (1% methylcellulose in IMDM, 30% FBS, 1% BSA, 10^−4M 2-mercaptoethanol, 2 mM L-glutamine, 50 ng/ml rh stem cell factor, 10 ng/ml rh GM-CSF, 10 ng/ml rh IL-3-Stem Cell Technologies, Vancouver, B.C.) supplemented with 3 units/ml of erythropoietin and 50 ng/ml G-CSF (R&D Systems, Minneapolis, Minn.). Colonies were scored after 10-14 days of culture.

[10] = test system: pro-caspases 3, 8 or PARP; test: Immunoblot for caspase-dependent apoptotic events; format: cell-based, human; conditions: TDZD-8 treated cells, data not shown
Description: (§3) Immunoblots. Cells were prepared and analyzed as previously described.^35 Membrane fractions were prepared using mem-PER eukaryotic membrane protein extraction kit as per manufacturer's instructions (Pierce; Rockford, Ill.). Blots were probed with phospho-PKC (pan) (beta II; Ser660), phospho-PKCalpha/betaII (Thr638/641), total PKCα, PKCβ and FLT3 (Santa Cruz Biotechnology, Calif.), Caspase-3 (Cell Signaling technologies; Danvers, Mass.); caspase-8 and PARP (BD bioscience), cleaved PARP (abcam) or anti-actin (AC-15; Sigma) antibodies.

[11] = test system: cell lines derived from hematologic malignancies; test: NCI-60 screen, average; format: cell-based; conditions: Homo sapiens; average over hematologic lines of NCI-60; read-out: average concentration to achieve 50% growth inhibition (GI50)
Text: (§4) In contrast the cell viability for normal specimens was 79.5% (n=13).

[12] = test system: primary AML, ALL and CLL specimens; test: Free thiol analysis by mBBr labeling, leukemia specimens; format: cell-based, human; conditions: 20 μM TDZD-8, as early as 30 minutes after exposure
Description: C. […] Intracellular thiol levels were assessed by flow cytometry after labeling with 50 μM monobromobimane (molecular probes).

[13] = test system: primary CLL specimens; test: Viability of primary CLL specimens, Annexin V/7-AAD; format: cell-based; conditions: Homo sapiens, 24 h; read-out: mean viability relative to untreated controls
[14] = test system: plasma membrane localized PKCα and β in primary CD34+ AML and ALL cells; test: Immunoblot of membrane fractions for PKCα and PKCβ; format: cell-based, human; conditions: TDZD-8 for 1 hour
Description: as §3

[15] = test system: CCRF-CEM; test: NCI-60 screen; format: cell-based; conditions: Homo sapiens
Text: as §4

[16] = test system: Renal cancer, 7 cell lines; test: NCI-60 screen; format: cell-based; conditions: Homo sapiens
Text: as §4

[17] = test system: Ovarian cancer, 5 cell lines; test: NCI-60 screen; format: cell-based; conditions: Homo sapiens
Text: as §4

[18] = test system: SR; test: NCI-60 screen; format: cell-based; conditions: Homo sapiens
Text: as §4

[19] = test system: HL-60; test: NCI-60 screen; format: cell-based; conditions: Homo sapiens
Text: as §4

[20] = test system: Non-small cell lung cancer, 9 cell lines; test: NCI-60 screen; format: cell-based; conditions: Homo sapiens
Text: as §4

[21] = test system: Colon cancer, 7 cell lines; test: NCI-60 screen; format: cell-based; conditions: Homo sapiens
Text: as §4

[22] = test system: Breast cancer, 7 cell lines; test: NCI-60 screen; format: cell-based; conditions: Homo sapiens
Text: as §4

[23] = test system: RPMI-8226; test: NCI-60 screen; format: cell-based; conditions: Homo sapiens
Text: as §4

[24] = test system: Melanoma, 8 cell lines; test: NCI-60 screen; format: cell-based; conditions: Homo sapiens
Text: as §4

[25] = test system: CNS cancer, 6 cell lines; test: NCI-60 screen; format: cell-based; conditions: Homo sapiens
Text: as §4

[26] = test system: Prostate cancer, 2 cell lines; test: NCI-60 screen; format: cell-based; conditions: Homo sapiens
Text: as §4

[27] = test system: K-562; test: NCI-60 screen; format: cell-based; conditions: Homo sapiens
Text: as §4

[28] = test system: normal progenitor cells; test: Methylcellulose colony assay, normal specimens; format: cell-based, human; conditions: 20 μM TDZD-8, 18 hours before plating, n=12
Description: as §2

[29] = format: cell-based; conditions: human, CD34+CD38− cells gated from healthy (normal) specimens
[30] = read-out: Log10 GI50 (converted)

Chain of GSK3B (GSK3 beta) (P49841 whole entry): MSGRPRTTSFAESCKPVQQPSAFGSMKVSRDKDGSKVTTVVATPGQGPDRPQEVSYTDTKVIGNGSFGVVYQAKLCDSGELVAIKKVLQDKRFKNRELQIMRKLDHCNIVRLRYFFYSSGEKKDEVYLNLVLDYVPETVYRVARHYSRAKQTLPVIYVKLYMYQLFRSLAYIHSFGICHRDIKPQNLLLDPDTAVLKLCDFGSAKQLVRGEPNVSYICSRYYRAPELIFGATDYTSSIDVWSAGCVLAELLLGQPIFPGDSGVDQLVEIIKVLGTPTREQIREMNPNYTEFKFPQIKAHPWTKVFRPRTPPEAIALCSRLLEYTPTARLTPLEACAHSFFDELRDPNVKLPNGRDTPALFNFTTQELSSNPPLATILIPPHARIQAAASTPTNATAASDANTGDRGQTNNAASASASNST
Chain of PDGFRB (PDGFR beta) (P09619 33-1106): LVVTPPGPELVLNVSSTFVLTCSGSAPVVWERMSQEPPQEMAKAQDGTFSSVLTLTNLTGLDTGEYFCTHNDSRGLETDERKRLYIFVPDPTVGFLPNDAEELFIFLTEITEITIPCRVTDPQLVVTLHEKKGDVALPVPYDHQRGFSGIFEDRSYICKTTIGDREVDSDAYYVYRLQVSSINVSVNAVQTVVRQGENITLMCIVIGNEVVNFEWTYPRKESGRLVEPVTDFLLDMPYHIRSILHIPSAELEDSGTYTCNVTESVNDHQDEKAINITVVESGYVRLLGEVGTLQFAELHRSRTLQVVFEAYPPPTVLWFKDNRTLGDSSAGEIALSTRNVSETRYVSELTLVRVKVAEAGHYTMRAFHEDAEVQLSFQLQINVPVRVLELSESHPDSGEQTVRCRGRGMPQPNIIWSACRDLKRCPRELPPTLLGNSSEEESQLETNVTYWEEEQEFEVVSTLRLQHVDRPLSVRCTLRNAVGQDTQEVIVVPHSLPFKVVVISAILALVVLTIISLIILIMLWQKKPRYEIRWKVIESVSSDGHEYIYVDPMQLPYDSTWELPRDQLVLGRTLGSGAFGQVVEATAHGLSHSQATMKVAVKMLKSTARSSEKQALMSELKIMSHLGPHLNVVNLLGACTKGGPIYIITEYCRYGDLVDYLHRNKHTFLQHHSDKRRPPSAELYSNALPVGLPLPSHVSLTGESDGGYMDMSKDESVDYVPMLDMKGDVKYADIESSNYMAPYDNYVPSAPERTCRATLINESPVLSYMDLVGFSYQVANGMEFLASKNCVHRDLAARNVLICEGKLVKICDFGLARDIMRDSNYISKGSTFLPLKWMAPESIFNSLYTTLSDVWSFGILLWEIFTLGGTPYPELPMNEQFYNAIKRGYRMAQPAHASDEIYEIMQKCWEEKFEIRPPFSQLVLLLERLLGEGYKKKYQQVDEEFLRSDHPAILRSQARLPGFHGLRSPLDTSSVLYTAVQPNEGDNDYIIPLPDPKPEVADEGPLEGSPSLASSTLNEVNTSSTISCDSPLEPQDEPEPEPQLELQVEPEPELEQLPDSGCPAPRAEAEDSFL
Chain of PHKG2 (P15735 whole entry): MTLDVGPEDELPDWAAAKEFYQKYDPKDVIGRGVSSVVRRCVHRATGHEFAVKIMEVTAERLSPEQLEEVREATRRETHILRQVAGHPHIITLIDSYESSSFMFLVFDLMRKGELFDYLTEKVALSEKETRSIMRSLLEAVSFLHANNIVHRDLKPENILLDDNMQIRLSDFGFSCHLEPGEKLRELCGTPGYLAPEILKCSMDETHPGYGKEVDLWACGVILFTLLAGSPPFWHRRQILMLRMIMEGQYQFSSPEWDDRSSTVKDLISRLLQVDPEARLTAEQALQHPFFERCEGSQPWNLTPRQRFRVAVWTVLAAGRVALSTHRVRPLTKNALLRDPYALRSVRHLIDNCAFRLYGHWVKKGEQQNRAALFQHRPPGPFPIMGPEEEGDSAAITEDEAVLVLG
Chain of EPHA2 (P29317 24-976): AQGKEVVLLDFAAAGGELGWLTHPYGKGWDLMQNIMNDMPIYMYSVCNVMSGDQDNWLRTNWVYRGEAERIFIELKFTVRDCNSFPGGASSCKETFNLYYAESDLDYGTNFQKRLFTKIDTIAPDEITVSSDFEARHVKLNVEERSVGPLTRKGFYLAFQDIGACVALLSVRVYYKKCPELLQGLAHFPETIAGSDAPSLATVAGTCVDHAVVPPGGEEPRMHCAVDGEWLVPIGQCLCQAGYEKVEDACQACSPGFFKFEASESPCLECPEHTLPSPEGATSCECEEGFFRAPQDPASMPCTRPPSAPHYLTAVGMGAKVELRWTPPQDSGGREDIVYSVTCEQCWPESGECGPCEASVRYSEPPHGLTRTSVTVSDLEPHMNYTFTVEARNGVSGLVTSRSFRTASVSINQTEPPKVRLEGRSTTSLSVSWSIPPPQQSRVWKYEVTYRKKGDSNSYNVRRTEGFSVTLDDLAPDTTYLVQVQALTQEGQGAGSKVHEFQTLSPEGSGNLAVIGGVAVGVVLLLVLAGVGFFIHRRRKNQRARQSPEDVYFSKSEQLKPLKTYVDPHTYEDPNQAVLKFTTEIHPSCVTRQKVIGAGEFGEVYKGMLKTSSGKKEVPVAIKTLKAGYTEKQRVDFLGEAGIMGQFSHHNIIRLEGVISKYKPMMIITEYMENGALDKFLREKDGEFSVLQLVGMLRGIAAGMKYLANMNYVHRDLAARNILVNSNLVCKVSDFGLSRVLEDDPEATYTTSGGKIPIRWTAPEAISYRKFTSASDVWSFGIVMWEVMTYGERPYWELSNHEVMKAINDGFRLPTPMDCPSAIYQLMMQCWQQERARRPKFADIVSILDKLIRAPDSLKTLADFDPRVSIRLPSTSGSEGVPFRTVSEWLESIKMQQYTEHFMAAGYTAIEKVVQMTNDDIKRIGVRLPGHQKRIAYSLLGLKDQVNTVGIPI
Chain of MAP4K4 (HGK) (O95819 whole entry): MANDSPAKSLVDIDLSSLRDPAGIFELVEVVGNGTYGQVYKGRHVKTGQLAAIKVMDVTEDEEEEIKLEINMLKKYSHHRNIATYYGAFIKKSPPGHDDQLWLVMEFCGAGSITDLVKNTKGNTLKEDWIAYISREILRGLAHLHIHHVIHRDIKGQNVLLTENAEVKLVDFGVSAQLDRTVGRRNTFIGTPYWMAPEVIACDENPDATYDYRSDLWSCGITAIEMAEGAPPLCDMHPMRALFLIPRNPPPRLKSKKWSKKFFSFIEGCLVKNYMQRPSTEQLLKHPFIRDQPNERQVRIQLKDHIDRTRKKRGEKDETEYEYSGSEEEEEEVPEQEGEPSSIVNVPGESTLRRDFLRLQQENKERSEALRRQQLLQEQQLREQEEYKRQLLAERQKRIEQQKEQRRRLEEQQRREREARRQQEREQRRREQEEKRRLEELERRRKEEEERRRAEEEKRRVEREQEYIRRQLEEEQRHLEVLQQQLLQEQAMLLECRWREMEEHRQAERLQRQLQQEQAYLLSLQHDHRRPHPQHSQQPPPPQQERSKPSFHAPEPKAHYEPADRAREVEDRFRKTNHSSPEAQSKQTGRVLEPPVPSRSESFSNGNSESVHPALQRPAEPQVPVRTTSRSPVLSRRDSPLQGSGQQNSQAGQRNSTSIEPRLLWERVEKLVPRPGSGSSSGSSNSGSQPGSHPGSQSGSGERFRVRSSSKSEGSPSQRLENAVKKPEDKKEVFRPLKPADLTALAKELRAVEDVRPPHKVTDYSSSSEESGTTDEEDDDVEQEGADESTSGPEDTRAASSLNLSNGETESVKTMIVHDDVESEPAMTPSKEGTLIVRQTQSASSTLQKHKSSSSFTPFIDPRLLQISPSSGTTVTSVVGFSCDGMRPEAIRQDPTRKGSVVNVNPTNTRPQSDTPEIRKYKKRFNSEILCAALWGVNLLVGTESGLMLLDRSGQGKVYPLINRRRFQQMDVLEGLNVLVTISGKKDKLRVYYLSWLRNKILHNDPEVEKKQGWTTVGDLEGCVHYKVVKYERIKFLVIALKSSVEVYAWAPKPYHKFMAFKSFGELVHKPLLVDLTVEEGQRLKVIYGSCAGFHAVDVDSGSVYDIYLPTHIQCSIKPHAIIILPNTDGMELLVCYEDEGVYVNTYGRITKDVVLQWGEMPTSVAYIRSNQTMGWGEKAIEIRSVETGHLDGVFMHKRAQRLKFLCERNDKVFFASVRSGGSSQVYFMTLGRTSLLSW
Chain of PRKCB2 (PKC beta II) (P05771 1-673 isoform P05771-2): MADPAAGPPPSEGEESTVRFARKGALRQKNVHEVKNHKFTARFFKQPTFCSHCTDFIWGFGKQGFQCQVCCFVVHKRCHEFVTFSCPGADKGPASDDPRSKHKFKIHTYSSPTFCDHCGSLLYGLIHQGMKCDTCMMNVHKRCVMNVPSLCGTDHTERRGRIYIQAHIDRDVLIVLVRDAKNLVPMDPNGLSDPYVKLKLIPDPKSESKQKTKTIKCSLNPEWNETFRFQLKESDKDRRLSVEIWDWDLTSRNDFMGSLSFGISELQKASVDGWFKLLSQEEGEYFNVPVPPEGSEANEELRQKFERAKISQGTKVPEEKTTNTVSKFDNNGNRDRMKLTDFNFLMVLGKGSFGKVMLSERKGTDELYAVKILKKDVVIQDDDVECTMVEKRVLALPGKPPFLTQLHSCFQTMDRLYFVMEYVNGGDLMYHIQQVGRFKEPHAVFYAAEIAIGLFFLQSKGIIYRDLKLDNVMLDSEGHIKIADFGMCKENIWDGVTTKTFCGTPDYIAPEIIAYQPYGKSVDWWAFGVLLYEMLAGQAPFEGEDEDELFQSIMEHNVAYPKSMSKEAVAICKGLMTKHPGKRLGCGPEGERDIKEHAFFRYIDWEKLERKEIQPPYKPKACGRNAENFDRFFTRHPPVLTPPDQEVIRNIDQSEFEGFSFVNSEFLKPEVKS

Cn1sc(=O)n(Cc2ccccc2)c1=O [TDZD-8, 4-benzyl-2-methyl-1,2,4-thiadiazolidine-3,5-dione]
inhibition at 20 µM [1]: 80%
inhibition at 20 µM [2]: -4%
% Inhibition mean ([2]; TDZD-8 20 μM): little to no inhibition
inhibition at 20 µM [3]: 3%
inhibition at 20 µM [4]: 100%
inhibition at 20 µM [5]: 99%
inhibition at 20 µM [6]: 99%
rapid uptake of YoPro-1 [7]: not evident in normal specimens
% Inhibition mean [8]: 99%
inhibition at 20 µM [8]: 98%
CFU, normalized to untreated controls [9]: 16.1%
cleavage of pro-caspases 3, 8 or PARP [10]: no cleavage of pro-caspases 3, 8 or PARP was detected
GI50 [11]: 8.3 µM
mBBr labeling (free thiol groups) [12]: reduction in mBBr labeling is evident
viability at 20 µM [13]: 7.2%
plasma membrane localized PKCα and β [14]: decreases
GI50 ([15]; read-out: GI50): 11.5 µM
GI50 [15, 30]: 11.5 µM
GI50 ([16]; read-out: GI50): > 100 µM
GI50 [16, 30]: > 100 µM
GI50 ([17]; read-out: GI50): > 100 µM
GI50 [17, 30]: > 100 µM
GI50 ([18]; read-out: GI50): 0.01 µM
GI50 [18, 30]: 0.01 µM
GI50 ([19]; read-out: GI50): 0.2 µM
GI50 [19, 30]: 0.234 µM
GI50 ([20]; read-out: GI50): > 100 µM
GI50 [20, 30]: > 100 µM
GI50 ([21]; read-out: GI50): > 100 µM
GI50 [21, 30]: > 100 µM
GI50 ([22]; read-out: GI50): > 100 µM
GI50 [22, 30]: > 100 µM
GI50 ([23]; read-out: GI50): 23.4 µM
GI50 [23, 30]: 23.4 µM
GI50 ([24]; read-out: GI50): > 100 µM
GI50 [24, 30]: > 100 µM
GI50 ([25]; read-out: GI50): > 100 µM
GI50 [25, 30]: > 100 µM
GI50 ([26]; read-out: GI50): > 100 µM
GI50 [26, 30]: > 100 µM
GI50 ([27]; K562, read-out: GI50): 6.5 µM
GI50 ([27]; K562, read-out: Log10 GI50 (converted)): 6.46 µM
erythroid colonies, normalized to untreated controls [28]: 94.79%
myeloid colonies, normalized to untreated controls [28]: 84.14%
viability at 24 h, 20 μM [29]: 80.2%
